logP data for 129 molecules are collected here from the OPERA property sets (Mansouri et al. 2018).

Take `COCCN(CCOC)/N=N/c1nc[nH]c1C(N)=O`: the logP (commonly the decadic logarithm of the partition coefficient of the neutral form, usually between octanol and water) worked out at 0.03. Regarding `COc1ccccc1C(=O)NCCN`, the logP was found to be 0. Next, `O=C(CNC(=O)c1ccccc1)Oc1ccc(F)cc1`: 2.46; `ClC1=C(Cl)C(Cl)C(Cl)C(Cl)C1Cl` (centres undefined): 4.31; `CN(N=O)C(=O)Oc1cccc2ccccc12`: 2.85.

On to `O=C(CN1CCCCC1)Nc1cccc(Cl)c1`, for which the log partition coefficient (logP) came to 3.45. Turning to `Cc1ccc(C=C[N+](=O)[O-])cc1`, the logP worked out at 2.66. In turn, `COC(=O)N(C)SN(C)C(=O)Oc1cccc2c1OC(C)(C)C2` showed a log partition coefficient (logP) of 3. Next, `CC(C)CNCC(=O)NC(=O)C=[N+]=[N-]`: 0.37. `CCOC(=O)CN(C(=O)CCl)c1ccccc1CC` showed a log partition coefficient (logP) of 2.57. The figure for `COc1cc(Cc2cnc(N)nc2N)cc(OC)c1C(C)(C)O` is 1.49; for `COc1cc(Cc2cnc(N)nc2N)ccc1N` it is 0.49; for `CC(=O)C(C#N)=NNc1ccc(Cl)c(Cl)c1` it is 4.56. On to `Cc1ccc(CN(C)N=Nc2ccc(C(=O)O)cc2)cc1`, for which the logP worked out at 4.75. `CC(=O)Nc1cccc(OC(=O)CNC(=O)c2ccccc2)c1` showed a logP of 1.7. With `O=C(NO)Nc1ccc(Cl)cc1`, the log partition coefficient (logP) amounted to 1.39. Next, `O=[N+]([O-])c1nccn1C1SC(CO)C(O)C(O)C1O` (centres undefined): -0.66; `NNC(=O)c1ccc(Br)cc1`: 1.28; `CC(C)c1nnc(N)o1`: 0.2.

For `NC(=O)Nc1cnc2ccccc2n1`, the logP turned out to be 1.3. In the case of `COC(=O)C(C#N)=NNc1ccc(SC(F)(F)F)cc1`, the lipophilicity (logP) worked out at 4.3. The molecule `NC(=O)NC1OC(=O)c2ccccc21` (centres undefined) had a logP of 0.49. Next, `COc1cc(OC)c(OC)cc1CC(C)N` (centres undefined): 1.74; `CCCCCCCCCCCCS(=O)(=O)[O-].[Na+]`: 0.96; `CCOC(=O)C(C#N)=NNc1ccc([N+](=O)[O-])cc1[N+](=O)[O-]`: 4.14.

On to `O=NN1CCCCCCC1`, for which the logP was determined as 1.48. `CSc1ccc(NS(=O)(=O)C(F)(F)F)cc1` showed a logP of 3.74. In turn, `Clc1ncnc2sccc12` registered a logP of 1.79. `O=S(=O)(Nc1cccc(Cl)c1)C(F)(F)F`: the logP is 4. Next, `CC1(C)CCCC(C)(C)N1N=O`: 2.49; `O=S1(=O)NC(C(Cl)Cl)=Nc2cc(Cl)ccc21`: 1.81. Next, `CCc1c(OC)cc(Cc2cnc(N)nc2N)cc1OC`: 2.72.

Take `CCN1C(=O)CN=C(c2ccccc2)c2cc(Cl)ccc21`: the logP was determined as 3.21. Next, `CC1NC(=Nc2ncc([N+](=O)[O-])s2)OC1(C)C` (centres undefined): 1.88; `CCOP(=S)(OCC)SCS(=O)CC` (centres undefined): 1.78. The figure for `CNC(=O)Oc1cc(C)c(Cl)cc1C` is 2.95. For the molecule `COC(=O)COc1c(OC)cc(Cc2cnc(N)nc2N)cc1OC`, the log partition coefficient (logP) amounted to 0.55. `O=[N+]([O-])c1ccc(/C=C/c2nnc[nH]2)o1` showed a logP of 1.1. Molecule `CC1CCCN(N=O)C1` (centres undefined) returned a logP of 0.99.

`O=c1ccnc2ccccn12` came in with a logP of 0.2.

In turn, `O=C1OC(C2CCCCC2)c2ccccc21` (centres undefined) had a logP of 3.34. The figure for `O=[N+]([O-])c1nccn1C1OC(CO)C(O)C1O` (centres undefined) is -1.15; for `COc1ccccc1C(=O)NCCCCN` it is 0.58; for `c1ccc(Sc2cnn[nH]2)cc1` it is 2.65. Next, `COC(=O)C(C#N)=NNc1ccccc1C(F)(F)F`: 3.7. Turning to `CCCN(CC)CC(F)(F)F`, the logP was determined as 2.38. Next, `COc1ccc(Cc2cnc(N)nc2N)cc1OC`: 0.97; `COc1cc(Cc2cnc(N)nc2N)ccc1C(C)(C)O`: 1.38.

For the molecule `Cn1ncc2c([N+](=O)[O-])cc([N+](=O)[O-])cc21`, the logP was found to be 1.63.

As for `CCC(C)NC(=O)C=Cc1ccc(Cl)cc1` (centres undefined), the logP was determined as 3.37. The figure for `CC1=Nc2c(I)cc(Cl)cc2S(=O)(=O)N1` is 1.81; for `OCCCn1nnc2ccccc21` it is 0.91; for `CNC1C2CCC1c1ccccc12` (centres undefined) it is 2.37. The figure for `CSC(C)=NOC(=O)N(C)SN(C(=O)c1ccc(C)cc1)C(C)C` is 3.4. On to `CCCc1nnc(N)o1`, for which the logP stood at 0.23. The molecule `CS(=O)(=O)CCCOc1ccc([N+](=O)[O-])cc1` had a logP of 0.93. The figure for `CC1=Nc2cc(Br)ccc2S(=O)(=O)N1` is 1.37; for `CCOC(=O)c1c(OC)cc(Cc2cnc(N)nc2N)cc1OC` it is 1.25; for `CC(C)(C)c1cc(OC2OC(CO)C(O)C(O)C2O)cc(C(C)(C)C)c1` (centres undefined) it is 2.73. Molecule `CCCCCCN(SN(C)C(=O)ON=C(C)SC)C(=O)N(C)C` had a lipophilicity (logP) of 3.3.

For the molecule `CCNP(=O)(OC)SC` (centres undefined), the logP was 0.07. Next, `NS(=O)(=O)c1ccc2c(c1)S(=O)(=O)NC(Cc1ccccc1)N2` (centres undefined): 1.03; `CCOP(=O)(OCC)SCS(=O)CC` (centres undefined): 1.78; `CC1=C(C(=O)O)SCCO1`: 0.04. Next, `CCCCCCc1nnc(SC)n(N)c1=O`: 2.68; `CCCCCCc1nnc(N)o1`: 1.43.

`O=c1[nH]nc(CSc2ccccc2)[nH]1`: the lipophilicity (logP) is 1.46. Next, `CC1CN(C)C(=Nc2ncc([N+](=O)[O-])s2)N1` (centres undefined): 1.95. Next, `CCCCCCC1OC(=O)c2ccccc21` (centres undefined): 3.55; `CCCCCCCCCCCC[n+]1ccccc1C.[I-]`: 1.32. The figure for `N#CC(=Cc1ccccc1)C(=O)Nc1ccccc1` is 3.41; for `CNC(=O)ON=CC(C)(C)[N+](=O)[O-]` it is 0.36; for `NS(=O)(=O)c1ccccc1Cl` it is 0.74. `NC1CC2CCC1c1ccccc12` (centres undefined) displayed a logP of 2.29. Next, `CCC(C)(Oc1ccc(Cl)cc1)C(=O)O` (centres undefined): 2.9; `NNC(=O)c1ccc(O)cc1`: -0.33. Next, `Cc1cnc2ccccn2c1=O`: 0.77; `CNC(=O)ON=Cc1ccc(Cl)cc1`: 2.27.

As for `COP(=O)(OC)Oc1cc(C)c([N+](=O)[O-])c(C)c1`, the logP is 2.57. Turning to `COc1cc(C)c(Cc2cnc(N)nc2N)cc1OCc1ccccc1`, the logP stood at 2.69.

Molecule `O=CN(Cc1ccccc1)c1ccccc1` had a lipophilicity (logP) of 2.62. Next, `CCN(CC)c1nc(N(C)C)nc(N(C)C)n1`: 3.45; `CC(C)C(=O)N(C)SN(C)C(=O)Oc1cccc2c1OC(C)(C)C2`: 3.6; `N#Cc1cc(OCC(=O)O)ccc1Cl`: 1.56.

With `CN(C)c1ccc2c(c1)C(c1ccccc1)=NCC(=O)N2`, the logP was determined as 2.43. In turn, `Cc1cc(=O)n2c(C)cccc2n1` gave a logP of 1.05. The figure for `S=C=Nc1ccc(Nc2ccccc2)cc1` is 4.94.

On to `Clc1ccc(Cl)c(-c2cc(Cl)cc(Cl)c2Cl)c1`, for which the log partition coefficient (logP) worked out at 6.79. With `CCCCCCCCCCCCCCCC[n+]1cc(C)cc(C)c1.[I-]`, the logP is 3.35. Next, `CSc1cccc(N=NN(C)C)c1`: 2.98.

`[Br-].c1ccc(CC[n+]2ccccc2)cc1`: the logP is -2.35. The figure for `Clc1ccc(-c2ccc(Cl)c(Cl)c2Cl)c(Cl)c1` is 6.61; for `Cc1ccccc1C1=NCC(=O)Nc2ccc(Cl)cc21` it is 3.12. For the molecule `O=C(CNC(=O)c1ccccc1)Oc1cccc(F)c1`, the logP came to 2.58.

`Oc1nc2ccccc2nc1O`: the log partition coefficient (logP) was determined as 0.2. Next, `NNC(=O)c1ccc2ncccc2c1`: 0.35. Next, `O=S(=O)(Nc1ccc(I)cc1)C(F)(F)F`: 4.39; `CN1C(=O)CN=C(c2ccccc2)c2cc(N)ccc21`: 1.46. With `Clc1ccccc1-c1ccc(Cl)c(Cl)c1Cl`, the lipophilicity (logP) was found to be 6.11. With `Clc1ccc(Cl)c(N=C2NCCN2)c1`, the logP amounted to 2.04. Next, `COc1cc(Cc2cnc(N)nc2N)cc(OC)c1C(=O)OC(C)C`: 1.72. The figure for `Nc1ncnc2nc(-c3cccc([N+](=O)[O-])c3)[nH]c12` is 1.93. As to `CN(C)C(=O)CCC(=O)OCC(=O)C1(O)CCC2C3CCC4=CC(=O)CCC4(C)C3C(O)CC21C` (centres undefined), the logP is 2.03. The figure for `O=S(=O)(Nc1ccc(F)cc1F)C(F)(F)F` is 3.06; for `Nc1nc(N)nc(-c2cc(Br)ccc2F)n1` it is 1.94; for `CS(=O)(=O)CCn1ccnc1[N+](=O)[O-]` it is -1.3.

`Nc1cccc(OC(=O)CNC(=O)c2ccccc2)c1` registered a logP of 1.3.

For `CCC(CC)(C(N)=O)c1ccc2c(c1)OCO2`, the logP turned out to be 1.59.

On to `CCCC12CC3CC(CC(N)(C3)C1)C2`, for which the logP was found to be 3.76. With `C[N+](C)(C)Cc1cccc(Cl)c1.[Br-]`, the logP is -1.81.

`CCc1cc(NC(C)=O)ccc1O` returned a logP of 1.31.

Consider `CSc1nc(C)cc(C)n1`, for which the logP is 1.86. Next, `N#Cc1ccc(C=CNC=O)cc1`: 1.62; `Cc1nnc(C)s1`: 0.03; `CCN(CC)c1ccc(CO)cc1`: 2.29. The figure for `CCNC1=NC(=O)C(=Cc2ccc([N+](=O)[O-])o2)S1` is 1.16; for `O=C1CN=C(c2ccccc2Cl)c2cc(Br)ccc2N1` it is 3.3.

As for `O=C(O)COc1cccc(S(F)(F)(F)(F)F)c1`, the logP was determined as 2.78.

In turn, `N#Cc1ccc(NS(=O)(=O)c2ccc(N)cc2)cc1` came in with a logP of 1.83. The molecule `COc1cc(CC(C)N)cc(OC)c1OC` (centres undefined) yielded a logP of 1.21. Next, `O=NN(CCF)C(=O)NCCCl`: 0.96; `O=[N+]([O-])c1nccn1CC(O)COc1ccccc1` (centres undefined): 1.43.

For `CNC(=O)Oc1cccc(C(F)(F)F)c1`, the logP came to 2.37. Next, `COc1ccnc(-n2nc(C)cc2OC)n1`: 1.01; `CCCCCCCCCCCC[n+]1ccc(C)cc1C.[I-]`: 1.41. The figure for `CCc1cc(=O)n2c(C)cccc2n1` is 1.59. Next, `CCOC(=O)CCCCn1nnc2ccccc21`: 2.2; `COc1cc(OC)c(CC(C)N)c(OC)c1` (centres undefined): 1.57. Take `Cc1ccc(Cl)c(Cl)c1NC1=NCCN1`: the logP is 2.35.
